Here are results for 16 molecules from article PMC10303166, “Design, Synthesis, Biological Evaluation, and Molecular Docking Study of 4,6-Dimethyl-5-aryl/alkyl-2-[2-hydroxy-3-(4-substituted-1-piperazinyl)propyl]pyrrolo[3,4-c]pyrrole-1,3(2H,5H)-diones as Anti-Inflammatory Agents with Dual Inhibition of COX and LOX” (Pharmaceuticals, 2023).

The target of one data set is T1, COX-2 (Homo sapiens, UniProt P35354).
T1 sequence (P35354 18-604): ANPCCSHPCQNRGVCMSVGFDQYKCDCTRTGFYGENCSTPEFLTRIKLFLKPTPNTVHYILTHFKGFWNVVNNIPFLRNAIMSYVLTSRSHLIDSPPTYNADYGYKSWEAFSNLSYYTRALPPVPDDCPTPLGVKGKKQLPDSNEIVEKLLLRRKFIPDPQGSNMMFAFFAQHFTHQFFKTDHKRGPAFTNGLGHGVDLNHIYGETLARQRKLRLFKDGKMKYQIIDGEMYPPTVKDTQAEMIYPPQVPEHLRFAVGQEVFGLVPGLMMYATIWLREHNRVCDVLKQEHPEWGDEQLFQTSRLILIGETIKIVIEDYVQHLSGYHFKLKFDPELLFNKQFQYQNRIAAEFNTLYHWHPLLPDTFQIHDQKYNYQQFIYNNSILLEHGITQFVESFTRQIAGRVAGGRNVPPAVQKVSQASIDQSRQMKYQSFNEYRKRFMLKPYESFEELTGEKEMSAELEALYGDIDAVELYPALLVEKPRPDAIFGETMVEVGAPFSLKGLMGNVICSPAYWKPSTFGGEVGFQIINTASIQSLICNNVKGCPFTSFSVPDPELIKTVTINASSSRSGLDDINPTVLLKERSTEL
The data set is described as follows: Colorimetric cyclooxygenase inhibition assay (COX-2). Format: biochemical. To be noted: for IC50: incubation for 2 min with the tested compounds at a concentration of 100 µM, mean (SD); for COX Selectivity Ratio IC50(COX-2)/IC50(COX-1): ratio COX-2 over COX-1. On the procedure: COX peroxidase activity was evaluated by colorimetric evaluation of the occurrence of the oxidized form of N, N, N′, N′-tetramethyl-p-phenylenediamine (TMPD). The reduction of PGG2 (prostaglandin G2) to PGH2 is due to the oxidation of TMPD. […] The tested compounds wells included 110 μL Assay Buffer, 10 μL Hemin, and 40 μL solution of tested compounds, which was dissolved in DMSO in a final concentration of 10 mM. These samples were performed in three replicates for every compound. […] Subsequently, 20 μL substrate, i.e., arachidonic acid, was added. The entire plate was shaken for 5 min. The result is a change in color measured at 590 nm with a Varioskan LUX microplate reader (Thermo Scientific, Waltham, MA, USA).

The target in the next data set is 15-LOX (Glycine max, UniProt P08170). The data set is described as follows: Lipoxygenase inhibitor screening assay. The format is biochemical. The conditions noted are these: 15-LO, arachidonic acid substrate; mean (SD). On the procedure:
The assay detects and measures the hydroperoxides produced in the lipoxygenation reduction using a purified lipoxygenase (LO). Blank wells were prepared that contained 100 μL Assay buffer. The positive control included 10 μL 1x assay buffer and 90 μL 15-LO, but 100% of the Initial activity samples contained 90 μL 15-LO and 10 μL methanol. Samples with test compounds were prepared in triplicate, containing 90 µL of 15-LO and 10 µL of test compound at the assayed concentration of 10 mM. All samples prepared in this way were incubated for 5 min at room temperature. Subsequently, the substrate, i.e., arachidonic acid, was added. The entire test plate was shaken for 10 min. 100 µL of chromogen was added to the samples. The entire plate was shaken for 5 min. The absorbance was read at 490 nm in a VariuScan microplate reader.

Details of data set [1]: method as in PMID 10683864. The conditions noted are these: "writhing syndrome" test; cited from earlier work. In general terms: An intraperitoneal irritant provokes the stretching counted in writhing tests.
On the set-up of data set [2]: method as in PMID 10683864. To be noted: "hot plate" test; cited from earlier work.
In the next data set the test system is NHDF cells. Description: SRB viability assay on NHDF cells. The conditions noted are these: Homo sapiens, 48 h incubation with NHDF cells, tested 10-100 µM, mean (SD). Format: cell-based. The method, then:
The NHDF (CC-2511) was purchased from Lonza, Basel. This line was derived from human dermal fibroblasts grown in 5% CO2 with 95% humidity at 37 °C. Cells were cultured with 10% FBS and 2 mM L-glutamine, 1.25 μg/mL Amphotericin B, and 100 μg/mL Gentamicin. Twice a week, the morphology and confluence were evaluated under microscopy. The confluence was above 70%, and the NHDF cells were subcultured with TrypLE solution.
The new 2-[2-hydroxy-3-(4-substituted-1-piperazinyl)propyl] derivatives were dissolved in DMSO to a concentration of 10 mM and stored at −20 °C. The samples were prepared in four different concentrations of compounds (10 µM, 25 µM, 50 µM, and 100 µM), so the concentration of DMSO for cells was […].
Viability evaluation was performed using the Sulforhodamine B (SRB) dye. The SRB assay was carried out 24 h after seeding. The culture plates were fixed with a cold TCA solution with a final concentration of 10% w/v for 1 h at 4–8 °C. This plate was T0 control. T0 is cell before treatment tested compounds. The supernatant was removed from the culture. The compounds were added and incubated for 48 h at 5% CO2, 95% humidity, and 37 °C. The culture was fixed with a cold TCA solution. The same condition was performed on the T0 plate. […] The absorbance was measured at 540 nm with a Varioskan LUX microplate reader (Thermo Scientific, Waltham, MA, USA).
Background: In SRB staining, fixed cells bind dye roughly in proportion to their protein.

Read-outs that look alike come from different tables or passages of the source.

Sequence of 15-LOX (P08170 whole entry): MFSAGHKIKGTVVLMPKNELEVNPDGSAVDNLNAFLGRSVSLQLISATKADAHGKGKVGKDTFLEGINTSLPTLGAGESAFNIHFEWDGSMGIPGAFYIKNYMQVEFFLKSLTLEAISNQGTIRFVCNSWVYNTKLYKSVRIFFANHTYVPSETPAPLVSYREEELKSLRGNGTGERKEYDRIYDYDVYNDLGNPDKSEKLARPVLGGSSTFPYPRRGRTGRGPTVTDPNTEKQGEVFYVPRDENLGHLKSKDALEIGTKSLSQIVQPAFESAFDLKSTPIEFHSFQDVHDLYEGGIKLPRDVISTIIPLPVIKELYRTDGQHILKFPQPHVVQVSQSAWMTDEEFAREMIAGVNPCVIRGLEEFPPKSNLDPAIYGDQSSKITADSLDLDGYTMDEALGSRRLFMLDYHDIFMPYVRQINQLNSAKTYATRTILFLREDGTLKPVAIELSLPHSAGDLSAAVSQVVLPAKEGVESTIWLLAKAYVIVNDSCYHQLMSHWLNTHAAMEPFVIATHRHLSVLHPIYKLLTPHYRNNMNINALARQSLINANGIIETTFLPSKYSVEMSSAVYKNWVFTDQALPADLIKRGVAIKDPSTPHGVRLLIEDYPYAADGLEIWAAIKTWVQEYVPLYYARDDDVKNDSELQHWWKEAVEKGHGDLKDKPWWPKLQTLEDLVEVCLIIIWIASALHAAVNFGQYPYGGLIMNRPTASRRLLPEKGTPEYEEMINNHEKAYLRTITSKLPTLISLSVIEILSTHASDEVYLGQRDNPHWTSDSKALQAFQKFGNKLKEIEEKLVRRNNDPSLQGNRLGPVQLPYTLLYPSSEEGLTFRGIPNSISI

In the case of `CCCCn1c(C)c2c(c1C)C(=O)N(CC(O)CN1CCN(c3ccc(Br)cc3)CC1)C2=O` (stereo not drawn) [3b, 4,6-dimethyl-5-butyl-2-[2-hydroxy-3-[4-(p-bromophenyl)piperazin-1-yl]propyl]pyrrolo[3,4-c]pyrrole-1,3(2H,5H)-dione], the melting point is 180 to 182 °C. Further, on COX-2, it took 59.77 ± 0.05 µM to reach half-maximal inhibition (IC50) and the “COX Selectivity Ratio IC50(COX-2)/IC50(COX-1)” value is given as 0.76.

With `Cc1c2c(c(C)n1-c1cccc(Cl)c1)C(=O)N(CC(O)CN1CCN(S(C)(=O)=O)CC1)C2=O` (stereo not drawn) [3n, 4,6-dimethyl-5-(3-chlorophenyl)-2-[2-hydroxy-3-(N-methylsulphonylpiperazin-1-yl)-propyl]pyrrolo[3,4-c]pyrrole-1,3(2H,5H)-dione], the melting point lay in the range of 119 to 122 °C. Also, at COX-2, the IC50 was found to be 60.25 ± 0.07 µM and the “COX Selectivity Ratio IC50(COX-2)/IC50(COX-1)” value was 0.71.

Consider `CCCCn1c(C)c2c(c1C)C(=O)N(CC(O)CN1CCN(c3ccc(F)cc3F)CC1)C2=O` (stereo not drawn) [3e, 4,6-dimethyl-5-butyl-2-[2-hydroxy-3-[4-(2,4-difluorophenyl)piperazin-1-yl]propyl]pyrrolo[3,4-c]pyrrole-1,3(2H,5H)-dione], for which the melting point lay in the range of 139 to 141 °C. Further, on COX-2, the midpoint of inhibition, the IC50, lay at 56.43 ± 0.03 µM and the “COX Selectivity Ratio IC50(COX-2)/IC50(COX-1)” value is 0.64. Further, at 15-LOX, the “Lipoxygenase Inhibition Assay IC50 LOX” value is given as “higher activity against LOX than Zileuton”.

Turning to `CCCCn1c(C)c2c(c1C)C(=O)N(CC(O)CN1CCN(c3ccccc3)CC1)C2=O` (stereo not drawn) [Compound I], the “Analgesic activity: acted up to the dose (fraction of LD50)” value in data set [1] is 1/80; in data set [2] it was 1/20.

The molecule `Cc1c2c(c(C)n1-c1ccccc1)C(=O)N(CC(O)CN1CCN(S(C)(=O)=O)CC1)C2=O` (stereo not drawn) [3m, 4,6-dimethyl-5-phenyl-2-[2-hydroxy-3-(N-methylsulphonylpiperazin-1-yl)-propyl]pyrrolo[3,4-c]pyrrole-1,3(2H,5H)-dione] displayed a melting point of 136 to 138 °C. Further, on COX-2, half-maximal inhibition (IC50) was put at 61 ± 0.04 µM and the “COX Selectivity Ratio IC50(COX-2)/IC50(COX-1)” value is reported as 0.80.

In the case of `CCCCn1c(C)c2c(c1C)C(=O)N(CC(O)CN1CCN(c3ncccn3)CC1)C2=O` (stereo not drawn) [3k, 4,6-dimethyl-5-butyl-2-[2-hydroxy-3-(4-pyrimidynyl-1-piperazinyl)propyl]pyrrolo[3,4-c]pyrrole-1,3(2H,5H)-dione], the melting point was in the range of 182 to 184 °C. Also, on COX-2, the IC50 turned out to be 60.83 ± 0.01 µM and the “COX Selectivity Ratio IC50(COX-2)/IC50(COX-1)” value turned out to be 0.73.

For the molecule `Cc1c2c(c(C)n1-c1cccc(Cl)c1)C(=O)N(CC(O)CN1CCN(c3ncccn3)CC1)C2=O` (stereo not drawn) [3j, 4,6-dimethyl-5-(3-chlorophenyl)-2-[2-hydroxy-3-(4-pyrimidynylpiperazin-1-yl)propyl]pyrrolo[3,4-c]pyrrole-1,3(2H,5H)-dione], the melting point is 179 to 181 °C. In addition, at COX-2, half-maximal inhibition (IC50) was put at 60.28 ± 0.02 µM and the “COX Selectivity Ratio IC50(COX-2)/IC50(COX-1)” value worked out at 0.79.

Molecule `CCOc1ccccc1N1CCN(CC(O)CN2C(=O)c3c(c(C)n(-c4cccc(Cl)c4)c3C)C2=O)CC1` (stereo not drawn) [3g, 4,6-dimethyl-5-(3-chlorophenyl)-2-[2-hydroxy-3-[4-(o-ethoxyphenyl)piperazin-1-yl]propyl]pyrrolo[3,4-c]pyrrole-1,3(2H,5H)-dione] came in with a melting point of 129 to 131 °C. Further, on COX-2, the IC50 was determined as 60.55 ± 0.09 µM and the “COX Selectivity Ratio IC50(COX-2)/IC50(COX-1)” value was 0.70.

`CCCCn1c(C)c2c(c1C)C(=O)N(CC(O)CN1CCN(c3ccccc3C#N)CC1)C2=O` (stereo not drawn) [3f, 4,6-dimethyl-5-butyl-2-[2-hydroxy-3-[4-(o-cyjanophenyl)piperazin-1-yl]propyl]pyrrolo[3,4-c]pyrrole-1,3(2H,5H)-dione] came in with a melting point of 154 to 156 °C. This molecule also displayed an IC50 at COX-2 of 60.36 ± 0.06 µM. Moreover, the “Lipoxygenase Inhibition Assay IC50 LOX” value on 15-LOX is given as “higher activity against LOX than Zileuton”.

On to `CCCCn1c(C)c2c(c1C)C(=O)N(CC(O)CN1CCN(c3ccc(C)cc3)CC1)C2=O` (stereo not drawn) [3a, 4,6-dimethyl-5-butyl-2-[2-hydroxy-3-[4-(p-methylphenyl)piperazin-1-yl]propyl]pyrrolo[3,4-c]pyrrole-1,3(2H,5H)-dione], for which the melting point was 116 to 118 °C. At COX-2, the IC50 was 60.16 ± 0.08 µM and the “COX Selectivity Ratio IC50(COX-2)/IC50(COX-1)” value turned out to be 0.73.

Molecule `Cc1c2c(c(C)n1-c1ccccc1)C(=O)N(CC(O)CN1CCN(c3ccc(F)cc3)CC1)C2=O` (stereo not drawn) [3c, 4,6-dimethyl-5-phenyl-2-[2-hydroxy-3-[4-(p-fluorophenyl)piperazin-1-yl]propyl]pyrrolo[3,4-c]pyrrole-1,3(2H,5H)-dione] gave a melting point of 182 to 184 °C. Besides, on COX-2, the midpoint of inhibition, the IC50, lay at 60.05 ± 0.03 µM and the “COX Selectivity Ratio IC50(COX-2)/IC50(COX-1)” value turned out to be 0.76.

Turning to `Cc1c2c(c(C)n1-c1ccccc1)C(=O)N(CC(O)CN1CCN(c3cccc(C(F)(F)F)c3)CC1)C2=O` (stereo not drawn) [3h, 4,6-dimethyl-5-phenyl-2-[2-hydroxy-3-[4-(m-trifluoromethylphenyl)piperazin-1-yl]propyl]pyrrolo[3,4-c]pyrrole-1,3(2H,5H)-dione], the melting point lay within 135 to 138 °C. Further, on COX-2, the IC50 worked out at 59.34 ± 0.04 µM and the “COX Selectivity Ratio IC50(COX-2)/IC50(COX-1)” value is 0.75.

In the case of `Cc1c2c(c(C)n1-c1ccccc1)C(=O)N(CC(O)CN1CCN(c3ncccn3)CC1)C2=O` (stereo not drawn) [3i, 4,6-dimethyl-5-phenyl-2-[2-hydroxy-3-(4-pyrimidynylpiperazin-1-yl)propyl]pyrrolo[3,4-c]pyrrole-1,3(2H,5H)-dione], on COX-2, it took 57.93 ± 0.02 µM to reach half-maximal inhibition (IC50) and the “COX Selectivity Ratio IC50(COX-2)/IC50(COX-1)” value stood at 0.71.

Take `Cc1c2c(c(C)n1-c1ccccc1)C(=O)N(CC(O)CN1CCN(c3ccc(F)cc3F)CC1)C2=O` (stereo not drawn) [3d, 4,6-dimethyl-5-phenyl-2-[2-hydroxy-3-[4-(2,4-difluorophenyl)-1-piperazinyl]propyl]pyrrolo[3,4-c]pyrrole-1,3(2H,5H)-dione]: the melting point is 143 to 145 °C. Further, half-maximal inhibition in the data set on NHDF cells (IC50) required 86.55 ± 0.05 µM. Also, on COX-2, half-maximal inhibition (IC50) was put at 59.7 ± 0.03 µM and the “COX Selectivity Ratio IC50(COX-2)/IC50(COX-1)” value is 0.73.

`CCCCn1c(C)c2c(c1C)C(=O)N(CC(O)CN1CCN(S(C)(=O)=O)CC1)C2=O` (stereo not drawn) [3o, 4,6-dimethyl-5-butyl-2-[2-hydroxy-3-(N-methylsulphonylpiperazin-1-yl)-propyl]pyrrolo[3,4-c]pyrrole-1,3(2H,5H)-dione]: the melting point is 139 to 141 °C. For the same molecule, in the data set on NHDF cells, inhibition was half-maximal at 49.47 ± 0.05 µM (IC50). For the same molecule, on COX-2, the IC50 stood at 59.42 ± 0.06 µM and the “COX Selectivity Ratio IC50(COX-2)/IC50(COX-1)” value worked out at 0.85.

Consider `Cc1c2c(c(C)n1-c1ccccc1)C(=O)N(CC(O)CN1CCN(c3ccccc3)CC1)C2=O` (stereo not drawn) [II], for which the entries for the “Analgesic activity: acted up to the dose (fraction of LD50)” value in data set [1] and in data set [2] were 1/40 and 1/20, respectively.

As a reminder, the melting point is the temperature of the solid-liquid transition. For orientation: IC50 means the concentration that gives 50% inhibition.
